Results from the NIST ThermoML archive (doi:10.1021/acs.jced.6b00168).
Values joined by “and” are separate entries in the source; they are usually repeats but may differ in a detail not shown here. Equal entries are not always repeated. ± gives the expanded uncertainty stated by the source.

Tests used:
[1] = 298.15 K; 100 kPa; Liquid; Frequency=3 MHz; Sing-around technique in a fixed-path interferometer
[2] = mn = molality of the nth substance listed, in mol/kg; conditions: 100 kPa, Liquid; for speed of sound: Frequency=3 MHz, Sing-around technique in a fixed-path interferometer; for mass density: Vibrating tube method

## O [water]
[1]
  speed of sound: 1495.9 ± 1.6 m/s

## O=C(N[C@H](CO)[C@H](O)c1ccc([N+](=O)[O-])cc1)C(Cl)Cl + O
[2]; 288.15 K, m1 = 0.0005
  speed of sound: 1466.9 ± 1.6 m/s
  mass density: 999.273 ± 0.23 kg/m3
[2]; 288.15 K, m1 = 0.001
  speed of sound: 1467 ± 1.6 m/s
  mass density: 999.429 ± 0.23 kg/m3
[2]; 288.15 K, m1 = 0.002
  speed of sound: 1467.1 ± 1.6 m/s
  mass density: 999.643 ± 0.23 kg/m3
[2]; 288.15 K, m1 = 0.004
  speed of sound: 1467.5 ± 1.6 m/s
  mass density: 999.922 ± 0.23 kg/m3
[2]; 298.15 K, m1 = 0.0005
  speed of sound: 1496 ± 1.6 m/s
  mass density: 997.209 ± 0.23 kg/m3
[2]; 298.15 K, m1 = 0.001
  speed of sound: 1496.1 ± 1.6 m/s
  mass density: 997.363 ± 0.23 kg/m3
[2]; 298.15 K, m1 = 0.002
  speed of sound: 1496.2 ± 1.6 m/s
  mass density: 997.576 ± 0.23 kg/m3
[2]; 298.15 K, m1 = 0.004
  speed of sound: 1496.7 ± 1.6 m/s
  mass density: 997.847 ± 0.23 kg/m3
[2]; 308.15 K, m1 = 0.0005
  speed of sound: 1519.6 ± 1.6 m/s
  mass density: 994.205 ± 0.23 kg/m3
[2]; 308.15 K, m1 = 0.001
  speed of sound: 1519.7 ± 1.6 m/s
  mass density: 994.356 ± 0.23 kg/m3
[2]; 308.15 K, m1 = 0.002
  speed of sound: 1519.9 ± 1.6 m/s
  mass density: 994.56 ± 0.23 kg/m3
[2]; 308.15 K, m1 = 0.004
  speed of sound: 1520.2 ± 1.6 m/s
  mass density: 994.831 ± 0.23 kg/m3
[2]; 318.15 K, m1 = 0.0005
  speed of sound: 1536.2 ± 1.6 m/s
  mass density: 990.372 ± 0.23 kg/m3
[2]; 318.15 K, m1 = 0.001
  speed of sound: 1536.4 ± 1.6 m/s
  mass density: 990.522 ± 0.23 kg/m3
[2]; 318.15 K, m1 = 0.002
  speed of sound: 1536.8 ± 1.6 m/s and 1536.5 ± 1.6 m/s
  mass density: 990.713 ± 0.23 kg/m3
[2]; 318.15 K, m1 = 0.004
  speed of sound: 1536.8 ± 1.6 m/s
  mass density: 990.992 ± 0.23 kg/m3
